According to ChEMBL document CHEMBL3044958, “Synthesis, evaluation of 6,8-dibromo-2-aryl-2,3-dihydroquinolin-4(1H)-ones in MCF-7 (breast cancer) cell lines and their docking studies” (2012):

Assays:
Type in all cases: functional
MCF7 [1] = assay: Growth inhibition of Homo sapiens (human) MCF-7 cells after 48 hr by SRB assay; details: MCF7, 48 h
MCF7 [2] = assay: Growth inhibition of Homo sapiens (human) MCF-7 cells assessed as cell growth at 10 '-4 M after 48 hr by SRB assay; details: MCF7, 48 h, read-out: Activity
MCF7 [3] = assay: Growth inhibition of Homo sapiens (human) MCF-7 cells assessed as cell growth at 10 '-5 M after 48 hr by SRB assay; details: MCF7, 48 h, read-out: Activity
MCF7 [4] = assay: Growth inhibition of Homo sapiens (human) MCF-7 cells assessed as cell growth at 10 '-6 M after 48 hr by SRB assay; details: MCF7, 48 h, read-out: Activity
MCF7 [5] = assay: Growth inhibition of Homo sapiens (human) MCF-7 cells assessed as cell growth at 10 '-7 M after 48 hr by SRB assay; details: MCF7, 48 h, read-out: Activity
MCF7 [6] = assay: Cytotoxicity against Homo sapiens (human) MCF-7 cells after 48 hr by SRB assay; details: MCF7, 48 h
MCF7 [7] = assay: Growth inhibition of Homo sapiens (human) MCF-7 cells assessed as total cell growth after 48 hr by SRB assay

Row | SMILES | GI50 (MCF7 [1]) | growth at 100 µM (MCF7 [2]) | growth at 10 µM (MCF7 [3]) | growth at 1 µM (MCF7 [4]) | growth at 0.1 µM (MCF7 [5]) | LC50 (concentration killing 50% of cells) (MCF7 [6]) | TGI (MCF7 [7])
1 | N#Cc1ccc(C2CC(=O)c3cc(Br)cc(Br)c3N2)cc1 (stereo unspecified) | < 100 nM | -58.5% | -5.1% | 8.2% | 43.1% | > 100000 nM | 126 nM
2 | O=C1CC(c2ccc([N+](=O)[O-])cc2)Nc2c(Br)cc(Br)cc21 (stereo unspecified) | < 100 nM | -52.3% | -4.4% | 8.6% | 50.5% | > 100000 nM | 132 nM
3 | O=C1CC(c2ccc(Br)cc2)Nc2c(Br)cc(Br)cc21 (stereo unspecified) | 151 nM | -43% | 12.5% | 69.7% | 69.7% | > 100000 nM | 2600 nM
4 | O=C1CC(c2ccc(F)cc2)Nc2c(Br)cc(Br)cc21 (stereo unspecified) | < 100 nM | -48.1% | -3.6% | 9.2% | 30.1% | > 100000 nM | 145 nM
5 | COc1cccc2c1C(=O)c1c(O)c3c(c(O)c1C2=O)C[C@@](O)(C(=O)CO)C[C@@H]3O[C@H]1C[C@H](N)[C@H](O)[C@H](C)O1.Cl [DOXORUBICIN HYDROCHLORIDE] | < 100 nM | -33.5% | -23.7% | -13.9% | 53.5% |  | 183 nM
6 | O=C1CC(c2ccc(Cl)cc2)Nc2c(Br)cc(Br)cc21 (stereo unspecified) | 146 nM | -40% | 34.5% | 61.7% | 60.2% | > 100000 nM | 2870 nM
7 | O=C1CC(c2ccc(O)cc2)Nc2c(Br)cc(Br)cc21 (stereo unspecified) | < 100 nM | -45.3% | -2% | 9.6% | 3.7% | > 100000 nM | 151 nM
8 | O=C1CC(c2cccc(O)c2)Nc2c(Br)cc(Br)cc21 (stereo unspecified) | > 100000 nM | 14.7% | 25.6% | 108% | 118% | > 100000 nM | > 100000 nM
9 | COc1cc(C2CC(=O)c3cc(Br)cc(Br)c3N2)cc(OC)c1OC (stereo unspecified) | > 100000 nM | 34.3% | 99.6% | 110% | 130% | > 100000 nM | > 100000 nM
10 | COc1ccc(C2CC(=O)c3cc(Br)cc(Br)c3N2)cc1 (stereo unspecified) | > 100000 nM | 7.1% | 87.8% | 140% | 168% | > 100000 nM | > 100000 nM
11 | CN(C)c1ccc(C2CC(=O)c3cc(Br)cc(Br)c3N2)cc1 (stereo unspecified) | > 100000 nM | 43% | 130% | 144% | 164% | > 100000 nM | > 100000 nM
